Experiment: Solubility tests of monomer 1 with auxiliary surfactants (additives) in the monomer solution
Format: physicochemical
Conditions: recipe 27 mol % sodium acrylate, 72.9 mol % acrylamide, 0.1 mol % 1; for Result (solubility of monomer 1 with additive): additive 2-20 eq relative to 1
Text: In order to solubilize monomer 1 the monomer was first dissolved in ethanol and then added to the monomer solution.
These tests were done in first instance with 0.1 mol % of 1.

Result (solubility of monomer 1 with additive)	Result (solubility of monomer 1 without additive) (no additive)	SMILES
Not soluble**	–	CCCCCCCCCCCCCCC(O)C[N+](C)(C)CCO.[Cl-] (stereo not shown) [Dehyquart E-CA, (2-hydroxyethyl)(2-hydroxyhexadecyl)dimethylammonium chloride]
Not soluble**	–	CCCCCCCCCCCCN(CCC(=O)[O-])CCC(=O)O.[Na+] [Deriphat 160 C, Sodium-N-lauryl-R-iminodipropionate]
–	Not soluble**	C=C(C)C(=O)OCCC[N+](C)(C)CCCCCCCCCCCC [Monomer 1]

SMILES	Result (solubility of monomer 1 with additive)	Result (solubility of monomer 1 without additive) (no additive)
CCCCCCCCCCCCCC[N+](C)(C)C.[Br-] [Monomer C14TAB, Tetradecyltrimethylammonium bromide, reference compound]	Not soluble**	–
